From US20250127162A1, “METHODS AND COMPOSITIONS FOR CONTROLLING PESTS IN RICE” (Globachem NV, priority 2022, published 2025)

Tested on: Chilo suppressalis
Experiment: Rice field trials, Chilo suppressalis insect damage / white heads (Example 1, Trials 3-4, Thailand)
Format: in vivo
Conditions: Trial 3
Experimental: All applications were made with an EC formulation containing 650 g/L of pelargonic acid (e.g., 685 g/L of 95% purity pelargonic acid), an anionic emulsifier and a branched fatty acid ester solvent. […] Trials 1 4 assessing the use of pelargonic acid for controlling Chilo suppressalis in rice were conducted in Spain and Thailand. Application A was made to the crops at the beginning of infestations; for these trials, Stage BBCH 59; Application B was made 14 days after Application A. Trial 3 was conducted in Thailand using a water volume of 500 L/ha of water per application unless otherwise indicated. Insect Damage ([…] %), Insect Damage (Number) and Phytotoxicity were assessed at various treatment evaluation intervals. Population levels were recorded by counting number of rice plants per hill, number of white head (damage from rice stem borer) followed by calculation of % insect damage. Trial 4 was conducted in Thailand using a water volume of 500 L/ha of water per application unless otherwise indicated. Insect Damage ([…] %), Insect Damage (Number) and Phytotoxicity were assessed at various treatment evaluation intervals. Population levels were recorded by counting number of rice plants per hill, number of white head (damage from rice stem borer) followed by calculation of % insect damage.

[1] = 0 DAA, water volume 500 L/ha, rate in treatment name, Prevathon 0.5 L/ha, listed as PA 585 g/ha
[2] = 0 DAA, water volume 500 L/ha, rate in treatment name, Prevathon 0.5 L/ha, listed as PA 975 g/ha
[3] = 0 DAA, water volume 500 L/ha, rate in treatment name, Prevathon 0.5 L/ha, listed as PA 1300 g/ha
[4] = 0 DAA, water volume 500 L/ha, rate in treatment name, Prevathon 0.5 L/ha, listed as PA 2600 g/ha
[5] = 0 DAB, water volume 500 L/ha, rate in treatment name, Prevathon 0.5 L/ha, listed as PA 585 g/ha
[6] = 0 DAB, water volume 500 L/ha, rate in treatment name, Prevathon 0.5 L/ha, listed as PA 975 g/ha
[7] = 0 DAB, water volume 500 L/ha, rate in treatment name, Prevathon 0.5 L/ha, listed as PA 1300 g/ha
[8] = 0 DAB, water volume 500 L/ha, rate in treatment name, Prevathon 0.5 L/ha, listed as PA 2600 g/ha
[9] = 7 DAA, water volume 500 L/ha, rate in treatment name, Prevathon 0.5 L/ha, listed as PA 585 g/ha
[10] = 7 DAA, water volume 500 L/ha, rate in treatment name, Prevathon 0.5 L/ha, listed as PA 975 g/ha
[11] = 7 DAA, water volume 500 L/ha, rate in treatment name, Prevathon 0.5 L/ha, listed as PA 1300 g/ha
[12] = 7 DAA, water volume 500 L/ha, rate in treatment name, Prevathon 0.5 L/ha, listed as PA 2600 g/ha
[13] = 7 DAB, water volume 500 L/ha, rate in treatment name, Prevathon 0.5 L/ha, listed as PA 585 g/ha
[14] = 7 DAB, water volume 500 L/ha, rate in treatment name, Prevathon 0.5 L/ha, listed as PA 975 g/ha
[15] = 7 DAB, water volume 500 L/ha, rate in treatment name, Prevathon 0.5 L/ha, listed as PA 1300 g/ha
[16] = 7 DAB, water volume 500 L/ha, rate in treatment name, Prevathon 0.5 L/ha, listed as PA 2600 g/ha
[17] = 10 DAA, water volume 500 L/ha, rate in treatment name, Prevathon 0.5 L/ha, listed as PA 585 g/ha
[18] = 10 DAA, water volume 500 L/ha, rate in treatment name, Prevathon 0.5 L/ha, listed as PA 975 g/ha
[19] = 10 DAA, water volume 500 L/ha, rate in treatment name, Prevathon 0.5 L/ha, listed as PA 1300 g/ha
[20] = 10 DAA, water volume 500 L/ha, rate in treatment name, Prevathon 0.5 L/ha, listed as PA 2600 g/ha
[21] = 10 DAB, water volume 500 L/ha, rate in treatment name, Prevathon 0.5 L/ha, listed as PA 585 g/ha
[22] = 10 DAB, water volume 500 L/ha, rate in treatment name, Prevathon 0.5 L/ha, listed as PA 975 g/ha
[23] = 10 DAB, water volume 500 L/ha, rate in treatment name, Prevathon 0.5 L/ha, listed as PA 1300 g/ha
[24] = 10 DAB, water volume 500 L/ha, rate in treatment name, Prevathon 0.5 L/ha, listed as PA 2600 g/ha
[25] = 14 DAB, water volume 500 L/ha, rate in treatment name, Prevathon 0.5 L/ha, listed as PA 585 g/ha
[26] = 14 DAB, water volume 500 L/ha, rate in treatment name, Prevathon 0.5 L/ha, listed as PA 975 g/ha
[27] = 14 DAB, water volume 500 L/ha, rate in treatment name, Prevathon 0.5 L/ha, listed as PA 1300 g/ha
[28] = 14 DAB, water volume 500 L/ha, rate in treatment name, Prevathon 0.5 L/ha, listed as PA 2600 g/ha
[29] = 21 DAB, water volume 500 L/ha, rate in treatment name, Prevathon 0.5 L/ha, listed as PA 585 g/ha
[30] = 21 DAB, water volume 500 L/ha, rate in treatment name, Prevathon 0.5 L/ha, listed as PA 975 g/ha
[31] = 21 DAB, water volume 500 L/ha, rate in treatment name, Prevathon 0.5 L/ha, listed as PA 1300 g/ha

## CCCCCCCCC(=O)O [PA 650 g/ha, pelargonic acid]
0 DAA, water volume 200 L/ha
  DAMINS % (insect damage, % white heads): 0.83%
  DAMINS (number): mean number of insect damage (white head symptoms): 3.4
[1]
  DAMINS % (insect damage, % white heads): 0.79%
  DAMINS (number): mean number of insect damage (white head symptoms): 3.23
[2]
  DAMINS % (insect damage, % white heads): 0.9%
  DAMINS (number): mean number of insect damage (white head symptoms): 3.8
[3]
  DAMINS % (insect damage, % white heads): 0.75%
  DAMINS (number): mean number of insect damage (white head symptoms): 3.11
[4]
  DAMINS % (insect damage, % white heads): 0.74%
  DAMINS (number): mean number of insect damage (white head symptoms): 3.14
0 DAB, water volume 200 L/ha
  DAMINS % (insect damage, % white heads): 0.25%
  DAMINS (number): mean number of insect damage (white head symptoms): 0.94
[5]
  DAMINS % (insect damage, % white heads): 0.6%
  DAMINS (number): mean number of insect damage (white head symptoms): 2.54
[6]
  DAMINS % (insect damage, % white heads): 0.46%
  DAMINS (number): mean number of insect damage (white head symptoms): 1.91
[7]
  DAMINS % (insect damage, % white heads): 0.39%
  DAMINS (number): mean number of insect damage (white head symptoms): 1.61
[8]
  DAMINS % (insect damage, % white heads): 0.29%
  DAMINS (number): mean number of insect damage (white head symptoms): 1.23
7 DAA, water volume 200 L/ha
  DAMINS % (insect damage, % white heads): 0.29%
  DAMINS (number): mean number of insect damage (white head symptoms): 1.16
[9]
  DAMINS % (insect damage, % white heads): 0.65%
  DAMINS (number): mean number of insect damage (white head symptoms): 2.93
[10]
  DAMINS % (insect damage, % white heads): 0.53%
  DAMINS (number): mean number of insect damage (white head symptoms): 2.13
[11]
  DAMINS % (insect damage, % white heads): 0.4%
  DAMINS (number): mean number of insect damage (white head symptoms): 1.74
[12]
  DAMINS % (insect damage, % white heads): 0.39%
  DAMINS (number): mean number of insect damage (white head symptoms): 1.79
7 DAB, water volume 200 L/ha
  DAMINS % (insect damage, % white heads): 0.55%
  DAMINS (number): mean number of insect damage (white head symptoms): 2.4
[13]
  DAMINS % (insect damage, % white heads): 0.84%
  DAMINS (number): mean number of insect damage (white head symptoms): 3.82
[14]
  DAMINS % (insect damage, % white heads): 0.73%
  DAMINS (number): mean number of insect damage (white head symptoms): 3.31
[15]
  DAMINS % (insect damage, % white heads): 0.64%
  DAMINS (number): mean number of insect damage (white head symptoms): 2.84
[16]
  DAMINS % (insect damage, % white heads): 0.49%
  DAMINS (number): mean number of insect damage (white head symptoms): 2.24
10 DAA, water volume 200 L/ha
  DAMINS % (insect damage, % white heads): 0.25%
  DAMINS (number): mean number of insect damage (white head symptoms): 0.99
[17]
  DAMINS % (insect damage, % white heads): 0.63%
  DAMINS (number): mean number of insect damage (white head symptoms): 2.92
[18]
  DAMINS % (insect damage, % white heads): 0.58%
  DAMINS (number): mean number of insect damage (white head symptoms): 2.26
[19]
  DAMINS % (insect damage, % white heads): 0.41%
  DAMINS (number): mean number of insect damage (white head symptoms): 1.77
[20]
  DAMINS % (insect damage, % white heads): 0.31%
  DAMINS (number): mean number of insect damage (white head symptoms): 1.49
10 DAB, water volume 200 L/ha
  DAMINS % (insect damage, % white heads): 0.44%
  DAMINS (number): mean number of insect damage (white head symptoms): 1.84
[21]
  DAMINS % (insect damage, % white heads): 0.71%
  DAMINS (number): mean number of insect damage (white head symptoms): 3.39
[22]
  DAMINS % (insect damage, % white heads): 0.66%
  DAMINS (number): mean number of insect damage (white head symptoms): 3.11
[23]
  DAMINS % (insect damage, % white heads): 0.38%
  DAMINS (number): mean number of insect damage (white head symptoms): 1.65
[24]
  DAMINS % (insect damage, % white heads): 0.33%
  DAMINS (number): mean number of insect damage (white head symptoms): 1.39
14 DAB, water volume 200 L/ha
  DAMINS % (insect damage, % white heads): 0.39%
  DAMINS (number): mean number of insect damage (white head symptoms): 1.53
[25]
  DAMINS % (insect damage, % white heads): 0.56%
  DAMINS (number): mean number of insect damage (white head symptoms): 2.35
[26]
  DAMINS % (insect damage, % white heads): 0.64%
  DAMINS (number): mean number of insect damage (white head symptoms): 2.82
[27]
  DAMINS % (insect damage, % white heads): 0.45%
  DAMINS (number): mean number of insect damage (white head symptoms): 1.94
[28]
  DAMINS % (insect damage, % white heads): 0.3%
  DAMINS (number): mean number of insect damage (white head symptoms): 1.25
21 DAB, water volume 200 L/ha
  DAMINS % (insect damage, % white heads): 0.36%
  DAMINS (number): mean number of insect damage (white head symptoms): 1.47
[29]
  DAMINS % (insect damage, % white heads): 0.8%
  DAMINS (number): mean number of insect damage (white head symptoms): 3.41
[30]
  DAMINS % (insect damage, % white heads): 0.6%
  DAMINS (number): mean number of insect damage (white head symptoms): 2.7
[31]
  DAMINS % (insect damage, % white heads): 0.39%
  DAMINS (number): mean number of insect damage (white head symptoms): 1.64
